The results in this text go back to ChEMBL document CHEMBL3826908, “Bortezomib inhibits bacterial and fungal β-carbonic anhydrases” (Bioorg Med Chem, 2016).

Experiment [1] is described as follows: Inhibition of Candida albicans beta-carbonic anhydrase preincubated for 15 mins by stopped-flow CO2 hydration assay.
Experiment [2] can be described thus: Inhibition of Candida glabrata beta-carbonic anhydrase preincubated for 15 mins by stopped-flow CO2 hydration assay. Also noted: species or system Nakaseomyces glabratus.
Experiment [3] is described as follows: Inhibition of Cryptococcus neoformans beta-carbonic anhydrase preincubated for 15 mins by stopped-flow CO2 hydration assay.
The nature of experiment [4]: Inhibition of Malassezia globosa beta-carbonic anhydrase preincubated for 15 mins by stopped-flow CO2 hydration assay.
A short description of experiment [5]: Inhibition of Mycobacterium tuberculosis beta-carbonic anhydrase Rv3273 preincubated for 15 mins by stopped-flow CO2 hydration assay.
The target of experiment [6] is T1, Beta-carbonic anhydrase 1 (Mycobacterium tuberculosis, UniProt P9WPJ7).
T1 sequence (P9WPJ7 whole entry): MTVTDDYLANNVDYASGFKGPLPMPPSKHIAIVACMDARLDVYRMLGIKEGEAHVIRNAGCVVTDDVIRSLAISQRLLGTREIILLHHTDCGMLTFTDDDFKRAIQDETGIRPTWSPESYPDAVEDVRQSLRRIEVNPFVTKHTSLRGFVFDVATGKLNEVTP
The experiment in a line: Inhibition of Mycobacterium tuberculosis beta-carbonic anhydrase Rv1284 preincubated for 15 mins by stopped-flow CO2 hydration assay.

Experiment [7] in a line: Inhibition of Mycobacterium tuberculosis beta-carbonic anhydrase Rv3588 preincubated for 15 mins by stopped-flow CO2 hydration assay.
Experiment [8] in a line: Inhibition of Drosophila melanogaster beta-carbonic anhydrase preincubated for 15 mins by stopped-flow CO2 hydration assay.
Experiment [9] can be described thus: Inhibition of Flaveria bidentis beta-carbonic anhydrase preincubated for 15 mins by stopped-flow CO2 hydration assay.
Another experiment addresses Carbonic anhydrase 1 (Homo sapiens, UniProt P00915).
The target in a further experiment is Carbonic anhydrase 2 (Homo sapiens, UniProt P00918).

Carbonic anhydrase 1, sequence (P00915 whole entry): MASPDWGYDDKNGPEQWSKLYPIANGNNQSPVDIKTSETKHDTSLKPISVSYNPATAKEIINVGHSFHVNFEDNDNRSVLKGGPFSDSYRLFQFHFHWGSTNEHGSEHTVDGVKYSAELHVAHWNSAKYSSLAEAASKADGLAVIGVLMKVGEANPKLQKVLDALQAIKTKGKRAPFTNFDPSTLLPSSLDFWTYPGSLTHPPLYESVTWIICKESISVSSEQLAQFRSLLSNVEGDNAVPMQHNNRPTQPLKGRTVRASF
Description for Carbonic anhydrase 2: Inhibition of human carbonic anhydrase-2 preincubated for 15 mins by stopped-flow CO2 hydration assay

With `OB(O)c1ccccc1` [PHENYLBORONIC ACID], the Ki is more than 100 µM in [1]; 100 µM in experiment [2]; more than 100 µM in experiment [3]; 89 µM in experiment [4]; 67 µM in experiment [5]; 58 µM in experiment [6]. In addition, the inhibitory constant (Ki) was 48 µM in experiment [7]; more than 100 µM in experiment [8]; 8 µM in experiment [9]; more than 100 µM on Carbonic anhydrase 1; more than 100 µM at Carbonic anhydrase 2.
Consider `CC(C)C[C@H](NC(=O)[C@H](Cc1ccccc1)NC(=O)c1cnccn1)B(O)O` [BORTEZOMIB], for which the inhibitory constant (Ki) in experiment [1] was 1.12 µM; in experiment [2] it was 5.73 µM; in experiment [3] it was 4.7 µM; in [4] it was 3.24 µM; in experiment [5], 6.5 µM; in experiment [6], 7.3 µM. Also, the Ki in experiment [7] was determined as 4.2 µM; in [8] it was 11.3 µM; in experiment [9], 8.45 µM; on Carbonic anhydrase 1, 1.29 µM; on Carbonic anhydrase 2, 1.16 µM.
Consider `CC(=O)Nc1nnc(S(N)(=O)=O)s1` [ACETAZOLAMIDE], for which the Ki in experiment [2] was determined as 0.011 µM; in [3] it was 0.01 µM; in experiment [4], 74 µM; in experiment [7], 0.01 µM; in experiment [8], 0.049 µM; in experiment [9], […].
